What was measured:
[1] = system: normal NK cells expanded with K562-aAPC; assay: percent inhibition of viability; higher = more inhibition; settings: 72 h, IL-2 2.5 ng/mL
Description: (§1)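 Drug sensitivity and resistance testing on K562-aAPC-expanded normal NK cells: 5 concentrations (10-fold steps over a 10,000-fold range), 72 h at 37 °C, viability by CellTiter-Glo normalised to DMSO and benzethonium chloride controls; DSS from the fitted curve.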

[2] = system: normal primary NK cells, pool 1 (3 donors) (IL-2 2.5 ng/mL); assay: drug sensitivity score (DSS) (DSS units); higher = more sensitive; extreme values may be limits of the assay; settings: 72 h
NK-92 (IL-2 2.5 ng/mL) [3] = assay: as above; settings: 72 h
IMC-1 (IL-2 20 ng/mL) [4] = assay: as above; settings: 72 h
DERL-7 (IL-2 2.5 ng/mL) [5] = assay: as above; settings: 72 h
SNK-6 (IL-2 2.5 ng/mL) [6] = assay: as above; settings: 72 h
[7] = system: normal primary NK cells, pool 3 (3 donors) (IL-2 2.5 ng/mL); assay: as above; settings: 72 h
KAI3 (IL-2 2.5 ng/mL) [8] = assay: as above; settings: 72 h
NK-YS (IL-2 2.5 ng/mL) [9] = assay: as above; settings: 72 h
[10] = system: normal primary NK cells, pool 1 (3 donors), resting (IL-2 0 ng/mL); assay: as above; settings: 72 h
NKL (IL-2 2.5 ng/mL) [11] = assay: as above; settings: 72 h
YT (IL-2 2.5 ng/mL) [12] = assay: as above; settings: 72 h
KHYG-1 (IL-2 2.5 ng/mL) [13] = assay: as above; settings: 72 h
[14] = system: normal primary NK cells, pool 2 (3 donors) (IL-2 2.5 ng/mL); assay: as above; settings: 72 h
[15] = system: normal primary NK cells, pool 1 (3 donors) (IL-2 2.5 ng/mL); assay: percent inhibition of viability; higher = more inhibition; settings: 72 h
NK-92 (IL-2 2.5 ng/mL) [16] = assay: as above; settings: 72 h
IMC-1 (IL-2 20 ng/mL) [17] = assay: as above; settings: 72 h
DERL-7 (IL-2 2.5 ng/mL) [18] = assay: as above; settings: 72 h
SNK-6 (IL-2 2.5 ng/mL) [19] = assay: as above; settings: 72 h
[20] = system: normal primary NK cells, pool 3 (3 donors) (IL-2 2.5 ng/mL); assay: as above; settings: 72 h
KAI3 (IL-2 2.5 ng/mL) [21] = assay: as above; settings: 72 h
NK-YS (IL-2 2.5 ng/mL) [22] = assay: as above; settings: 72 h
[23] = system: normal primary NK cells, pool 1 (3 donors), resting (IL-2 0 ng/mL); assay: as above; settings: 72 h
NKL (IL-2 2.5 ng/mL) [24] = assay: as above; settings: 72 h
YT (IL-2 2.5 ng/mL) [25] = assay: as above; settings: 72 h
KHYG-1 (IL-2 2.5 ng/mL) [26] = assay: as above; settings: 72 h
[27] = system: normal primary NK cells, pool 2 (3 donors) (IL-2 2.5 ng/mL); assay: as above; settings: 72 h
[28] = system: normal NK cells expanded with K562-aAPC; assay: drug sensitivity score (DSS) (DSS units); higher = more sensitive; extreme values may be limits of the assay; settings: 72 h; IL-2 2.5 ng/mL
Description: as §1

Cn1nnc2c(C(N)=O)ncn2c1=O [Temozolomide] (max concentration tested 100000 nM)
percent inhibition of viability [%]
Settings	10 nM	100 nM	1000 nM	10000 nM	100000 nM
DERL-7 (IL-2 2.5 ng/mL) [18]	-3.81	2.52	-0.21	4.75	-1.49
IMC-1 (IL-2 20 ng/mL) [17]	1.34	-6.01	5.36	17.9	74.4
KAI3 (IL-2 2.5 ng/mL) [21]	-11.8	-10.3	-9.47	-11.7	12.9
KHYG-1 (IL-2 2.5 ng/mL) [26]	-3.41	-4.13	0.86	0.71	8.74
NK-92 (IL-2 2.5 ng/mL) [16]	-7.14	-7.33	-5.28	7.55	32.4
NK-YS (IL-2 2.5 ng/mL) [22]	-2.59	-6.14	2.38	3.13	22.3
NKL (IL-2 2.5 ng/mL) [24]	-9.55	-19.8	-10.2	4.85	65.2
SNK-6 (IL-2 2.5 ng/mL) [19]	-0.07	8.23	35.2	72.8	88.5
YT (IL-2 2.5 ng/mL) [25]	-4.31	-3.78	-0.54	-3.29	0.79
[1]	0.11	-2.44	4.25	0.95	10.9
[15]	-7.39	2.46	-6.83	-0.09	5.41
[20]	-14.7	-11.8	-7.32	6.58	17.2
[23]	-13.7	-5.7	-14.4	-9.04	-7.4
[27]	-14.2	-9.61	-8.15	11.5	10

Settings	drug sensitivity score
DERL-7 (IL-2 2.5 ng/mL) [5]	0
IMC-1 (IL-2 20 ng/mL) [4]	6.93
KAI3 (IL-2 2.5 ng/mL) [8]	0.01
KHYG-1 (IL-2 2.5 ng/mL) [13]	0
NK-92 (IL-2 2.5 ng/mL) [3]	2.63
NK-YS (IL-2 2.5 ng/mL) [9]	1.21
NKL (IL-2 2.5 ng/mL) [11]	4.31
SNK-6 (IL-2 2.5 ng/mL) [6]	18
YT (IL-2 2.5 ng/mL) [12]	0
[2]	0
[7]	1.03
[10]	0
[14]	0.32
[28]	0.02

Cc1cc(Nc2ncc(Cl)c(Nc3ccccc3S(=O)(=O)C(C)C)n2)c(OC(C)C)cc1C1CCNCC1 [Ceritinib] (max concentration tested 2500 nM)
percent inhibition of viability [%]
Settings	0.25 nM	2.5 nM	25 nM	250 nM	2500 nM
DERL-7 (IL-2 2.5 ng/mL) [18]	3.63	5.92	-4.52	1.56	21.8
IMC-1 (IL-2 20 ng/mL) [17]	-2.25	-2.84	-3.12	-7.73	-4.42
KAI3 (IL-2 2.5 ng/mL) [21]	0.47	4.56	-2.83	3.89	7.4
KHYG-1 (IL-2 2.5 ng/mL) [26]	0.86	-4.67	-2.14	-5.38	-4.91
NK-92 (IL-2 2.5 ng/mL) [16]	7.74	-3.66	-9.06	-14.7	-17.8
NK-YS (IL-2 2.5 ng/mL) [22]	-0.73	-3.11	-3.16	-7.84	-1.32
NKL (IL-2 2.5 ng/mL) [24]	-3.75	-12.6	-15.7	-9.51	-1.79
SNK-6 (IL-2 2.5 ng/mL) [19]	10.1	11.8	6.18	-2.76	-12.8
YT (IL-2 2.5 ng/mL) [25]	2.57	-0.77	-0.72	-2.37	3.15
[1]	-2.81	-5.61	-7.59	-0.13	-2.11
[15]	-2.74	-3.9	0.34	4.28	50.2
[20]	-5.64	-4.98	-6.68	-5.81	0.68
[23]	-7.32	-13.8	7.94	12	69
[27]	-8.08	-2.52	-12.5	-0.57	15.4

Settings	drug sensitivity score
DERL-7 (IL-2 2.5 ng/mL) [5]	0.92
IMC-1 (IL-2 20 ng/mL) [4]	0.89
KAI3 (IL-2 2.5 ng/mL) [8]	0
KHYG-1 (IL-2 2.5 ng/mL) [13]	0
NK-92 (IL-2 2.5 ng/mL) [3]	0
NK-YS (IL-2 2.5 ng/mL) [9]	0.89
NKL (IL-2 2.5 ng/mL) [11]	0.89
SNK-6 (IL-2 2.5 ng/mL) [6]	0
YT (IL-2 2.5 ng/mL) [12]	0
[2]	3.33
[7]	0
[10]	5.8
[14]	0.23
[28]	0.89

COc1ccc(COc2cc3oc(=O)c4cc(C(C)O)ccc4c3cc2OC)cc1 (configuration not stated) [Palomid-529] (max concentration tested 10000 nM)
percent inhibition of viability [%]
Settings	1 nM	10 nM	100 nM	1000 nM	10000 nM
DERL-7 (IL-2 2.5 ng/mL) [18]	-6.43	-4.11	-0.12	1.25	21.1
IMC-1 (IL-2 20 ng/mL) [17]	-5.32	-4.51	2.75	4.92	7.18
KAI3 (IL-2 2.5 ng/mL) [21]	-1.34	0.71	-2.91	8.03	46.9
KHYG-1 (IL-2 2.5 ng/mL) [26]	1.15	-4.29	-3.13	9.18	59.6
NK-92 (IL-2 2.5 ng/mL) [16]	-6.63	-14.2	2.8	30.5	83.4
NK-YS (IL-2 2.5 ng/mL) [22]	-3.04	-9.05	-5.45	9.61	44.8
NKL (IL-2 2.5 ng/mL) [24]	-6.62	-2.59	6.05	30.5	33.3
SNK-6 (IL-2 2.5 ng/mL) [19]	-15.9	-23.8	-10.8	8.45	5.08
YT (IL-2 2.5 ng/mL) [25]	-2.49	-9.33	-3.82	12.3	49.4
[1]	-9.29	-6.42	-4.58	4.67	5.9
[15]	-7.97	-4.09	6.27	8.93	4.45
[20]	-14.4	-4.43	2.41	-2.08	5.65
[23]	-31.1	-17.8	-2.41	-12.2	10.7
[27]	-5.4	-5.23	-8.91	-7.52	4.06

Settings	drug sensitivity score
DERL-7 (IL-2 2.5 ng/mL) [5]	0.82
IMC-1 (IL-2 20 ng/mL) [4]	0
KAI3 (IL-2 2.5 ng/mL) [8]	3.78
KHYG-1 (IL-2 2.5 ng/mL) [13]	4.78
NK-92 (IL-2 2.5 ng/mL) [3]	8.66
NK-YS (IL-2 2.5 ng/mL) [9]	3.86
NKL (IL-2 2.5 ng/mL) [11]	5.94
SNK-6 (IL-2 2.5 ng/mL) [6]	0
YT (IL-2 2.5 ng/mL) [12]	4.52
[2]	0
[7]	0
[10]	0
[14]	0
[28]	0

— the supplement of paper PMC5908809
